# Assays:
# [1] = system: colonic epithelial cell differentiation; assay: Cyclopamine treatment of rats: markers of colonic epithelial differentiation (Western blot, H&E, immunohistochemistry); format: in vivo, rat; details: for carbonic anhydrase (CA) IV expression in enterocytes / intestinal trefoil factor expression in the enterocytes / Villin distribution in enterocytes: rat colon; for carbonic anhydrase (CA) IV expression in enterocytes: CA IV immunohistochemistry, cyclopamine treated vs control (FIG. 11G,H); for intestinal trefoil factor expression in the enterocytes: ITF immunohistochemistry, cyclopamine treated vs control (FIG. 11I-L); for Villin distribution in enterocytes: Villin immunohistochemistry, cyclopamine treated vs control (FIG. 11E,F); for enterocyte maturation / terminal differentiation of enterocytes in the colon: H&E and immunohistochemistry
# Experimental: (§1) Formalin fixed paraffin embedded human biopsy and resection specimens of uninflamed colonic mucosa, sporadic adenomas, sporadic carcinomas and adenomas from patients with FAP were obtained from the archives of the pathology department of the Academic Medical Center following institutional standards for human subject research. Immunohistochemistry was performed on 4μ sections using a three-step diaminobenzidine (DAB) detection method with antigen retrieval as described in detail previously (van den Brink et al., 2000). For BrdU visualisation, sections were incubated in 2N HCl at 37° C. for 60 minutes after deparaffinization and then washed in boric acid pH 8.5. Sections were counterstained with Mayer's hematoxylin, except when stained for HNF3β, engrailed-1 or β-catenin to allow optimal visualisation of nuclear staining. BrdU positive nuclei were scored as described (van den Brink et al., 2001).
# (§2) The distal half of the rat colon was dissected along the longitudinal axis and one half was homogenised and processed for Western blotting as described below. Murine stomach and small intestine were homogenised in lysis buffer (300 mmol/L NaCl, 30 mmol/L Tris, 2 mmol/L MgCl2, 2 mmol/L CaCl2, 1% Triton X-100, pH 7.4, supplemented with 1 tablet of protease inhibitor [Roche] per 50 ml). Protein concentration was measured using the Bradford method. Lysates were diluted 1:3 in protein sample buffer (125 mmol/L Tris/HCl, pH 6.8; 4% sodium dodecyl sulfate; 2% β-mercaptoethanol; 20% glycerol, 1 mg bromophenol blue), and 100-200 μof homogenate was loaded per lane on a sodium dodecyl sulfate-pol-yacrylamide gel electrophoresis gel. After protein separation, the proteins were blotted on to a PVDF membrane (Millipore, Bedford, Mass.). Membranes were blocked with 2% protifar (Nutricia, Zoetermeer, The Netherlands) in phosphate-buffered saline (PBS), supplemented with 0.1% Tween-20 for 1 hour at room temperature. After a brief wash in washing buffer (0.2% protifar; 0.1% Tween-20), membranes were incubated overnight at 4° C. with antibody diluted in washing buffer at the indicated concentration. The next day, membranes were washed 3 times for 5 minutes each and subsequently incubated with a secondary horseradish peroxidase tHRP)-conjugated antibody in a 1:2000 dilution. After enhanced chemoluminescence using Lumilight^+ substrate (Roche, Mannheim, Germany), antibody binding was visualised using a Lumi-Imager (Boehringer Mannheim, Mannheim, Germany).
# (§3) In addition to the mice described above, 8-week-old female Wistar rats (n=7) were treated with daily intraperitoneal injections of 1 mg/kg of the Hedgehog inhibitor cyclopamine complexed with 2-hydroxypropyl-β-cyclodextrin (HBC; Sigma) as described (van den Brink et al., 2001). Control rats (n=7) received solvent only. After 14 days, rats were given a single intraperitoneal injection of 150 mg/kg BrdU one hour before being killed.
# (§4) The distal half of the rat colon was dissected along the longitudinal axis and one half was homogenised and processed for Western blotting as described (van den Brink et al., 2001). To study Shh expression in the human GI tract we used specimens from the archives of the department of pathology of the Academic Medical Center and the Department of Pathology of the Massachusetts General Hospital and Brigham and Women's Hospital. We examined tissue with normal histology of at least 6 different patients to investigate each site along the normal GI tract for Shh expression. Other specimens included: tissue from 16 different patients with intestinal metaplasia of the stomach, 13 resection specimens of Meckel's diverticulum and 6 resection specimens of patients with Barrett's esophagus.
# Hh signalling = assay: Cyclopamine treatment of rats: Western blots of putative Hedgehog regulated proteins in colonic homogenates; format: in vivo; details: adult rat colon homogenate, Western blot
# Experimental: as §2, §3, §4
# HT-29 cells = assay: Butyrate induced differentiation of HT-29 cells, with or without cyclopamine (Western blot); format: cell-based; details: HT-29 cultures, 2 μ/ml cyclopamine plus butyrate, 24 hours, Western blot (FIGS. 13a,b)
# Experimental: as §2
# HT 29 colon cancer cell lines were cultured according to routine procedures in the presence of 10% fetal calf serum (GIBCO). Recombinant Shh (R&D systems) was used at the indicated concentrations; Butyrate (Sigma) was used at a 5 mM concentration.
# [2] = system: precursor cell proliferation in the adult colon; assay: Cyclopamine treatment of rats: markers of proliferation in the adult colon (Western blot, BrdU labelling); format: in vivo, rat
# Experimental: as §1, §2
# as §3, with “After 14 days, rats were given a single intraperitoneal injection of 150 mg/kg BrdU one hour before being killed.” left out
smiles,measurement,setting,value
CC1=C2C[C@H]3[C@@H](CC=C4C[C@@H](O)CC[C@@]43C)[C@@H]2CC[C@]12O[C@@H]1C[C@H](C)CN[C@H]1[C@H]2C [cyclopamine],"Intestinal trefoil factor (ITF/TFF3) expression, goblet cell lineage marker","[1]; adult rat colon homogenate, Western blot, cyclopamine 1 mg/kg i.p. daily for 14 days (FIG. 4, P=0.008)",strong induction
same,"expression of Villin, marker of enterocyte differentiation","[1]; adult rat colon homogenate, Western blot, cyclopamine 1 mg/kg i.p. daily for 14 days (FIG. 4, P=0.02)",reduced
same,carbonic anhydrase (CA) IV expression in enterocytes,[1],loss
same,carbonic anhydrase (CA) IV expression in enterocytes,[1]; listed as Cyclopamine,Loss
same,intestinal trefoil factor expression in the enterocytes,[1],induction
same,intestinal trefoil factor expression in the enterocytes,[1]; listed as Cyclopamine,strong immunoreactivity
same,Villin distribution in enterocytes,[1],villin-redistribution
same,Villin distribution in enterocytes,[1]; listed as Cyclopamine,apical staining is diminished and cytoplasmic staining enhanced
same,enterocyte maturation / terminal differentiation of enterocytes in the colon,"[1]; rat distal colon, cyclopamine treated vs control (FIG. 11)",inhibited
same,enterocyte maturation / terminal differentiation of enterocytes in the colon,"[1]; rat distal colon, cyclopamine treated vs control (FIG. 11), listed as Cyclopamine",disturbs
same,histoarchitecture of the colon,"[1]; rat distal colon, H&E, cyclopamine treated vs control (FIG. 11)",dramatic changes
same,levels of BMP4,"Hh signalling; cyclopamine 1 mg/kg i.p. daily for 14 days vs solvent controls (FIG. 3, P=0.0001)",markedly induced
same,HNF3β protein level,"Hh signalling; cyclopamine 1 mg/kg i.p. daily for 14 days vs solvent controls (FIG. 3, P=0.001)",dramatically upregulated
same,engrailed-1 protein level,"Hh signalling; cyclopamine 1 mg/kg i.p. daily for 14 days vs solvent controls (FIG. 3, P=0.002)",dramatically upregulated
same,GATA-6 protein level,"Hh signalling; cyclopamine 1 mg/kg i.p. daily for 14 days vs solvent controls (FIG. 3, P=0.005)",significantly downregulated
same,Ihh expression under Hh inhibition,"Hh signalling; cyclopamine 1 mg/kg i.p. daily for 14 days vs solvent controls (FIG. 3, P=0.08)",not necessary for maintenance of its own expression
same,expression levels of BMP-2,"Hh signalling; cyclopamine 1 mg/kg i.p. daily for 14 days vs solvent controls (FIG. 3, P=0.25)",no effect
same,butyrate mediated induction of E-cadherin,HT-29 cells,significantly reduced
same,butyrate mediated induction of Villin,HT-29 cells,significantly reduced
same,butyrate mediated induction of cip-1,HT-29 cells,significantly reduced
same,expression of PCNA,"[2]; adult rat colon homogenate, Western blot, cyclopamine 1 mg/kg i.p. daily for 14 days (FIG. 4, P<0.0001)",increased
same,expression of cyclin D1,"[2]; adult rat colon homogenate, Western blot, cyclopamine 1 mg/kg i.p. daily for 14 days (FIG. 4, P=0.01)",increased
same,"mitogenesis (PCNA, cyclin D1, BrdU labelled epithelial precursor cells)","[2]; adult rat colon, cyclopamine treated vs control (FIG. 12)",enhanced
same,incorporation of 5-bromo-2′-deoxyuridine (BrdU labelled cells per crypt),"[2]; adult rat colon, cyclopamine 1 mg/kg i.p. daily for 14 days, BrdU 150 mg/kg one hour before killing (FIG. 4, P=0.036)",increased

# Source: patent US20060058227A1, “Hedgehog-related prophylaxis, therapy and diagnosis of gi tract carcinogenesis” (Academisch Ziekenhulis bij de Universiteit van Amsterdam, priority 2002, published 2006)
